The record followed here is ChEMBL document CHEMBL1138036, “Simplified cyclic analogues of bastadin-5. Structure-activity relationships for modulation of the RyR1/FKBP12 Ca2+ channel complex” (J Med Chem, 2006).

Where only a bound is given, the exact number is not on record here.

The target of one test is RyR1/FKBP12 (Oryctolagus cuniculus). The experiment in a line: Antagonist like activity at skeletal junction sarcoplasmic reticulum RyR1/FKBP12 complex assessed as decrease in [3H]ryanodine binding.
By IC50 is commonly meant the concentration at which inhibition is half-maximal. As for `O=C1CCNC(=O)CCc2cc(Br)c(cc2Br)Oc2cc(cc(Br)c2O)CCN1`, the IC50 was found to be 47 µM. `[N-]=[N+]=Nc1cc2ccc1Oc1cc(cc(Br)c1O)CCNC(=O)CC2`: the IC50 was 63 µM.

The next test shares this target. The experiment in a line: Agonist like activity at skeletal junction sarcoplasmic reticulum RyR1/FKBP12 complex assessed as increase in [3H]ryanodine binding.
Broadly, the EC50 is the concentration at which the effect is half-maximal. For `[N-]=[N+]=Nc1cc2ccc1Oc1cc(cc(Br)c1O)CCNC(=O)CCNC(=O)CC2`, the EC50 was found to be 20 µM.

For `O=C1CCc2ccc(cc2)Oc2cc(cc(Br)c2O)CCN1`, the EC50 is over 100 µM. In the case of `COC(=O)c1cc(I)ccc1N=[N+]=[N-]`, the EC50 is over 100 µM. Take `O=C1CCc2cc(Br)c(cc2Br)Oc2cc(cc(Br)c2O)CCN1`: the EC50 was over 100 µM. On the same count and under the same terms, to `Nc1cc2ccc1Oc1cc(cc(Br)c1O)CCNC(=O)CC2` belongs 33 µM; to `[N-]=[N+]=Nc1ccc(I)cc1C(=O)NCCCC[C@H]1CC(=O)NCCc2cc(Br)c(O)c(c2)Oc2cc(Br)c(cc2Br)CCC(=O)N1`, 6.5 µM. On to `O=C1CCc2ccc(c(Br)c2)Oc2cc(cc(Br)c2O)CCN1`, for which the EC50 stood at 10.9 µM. Take `O=C1CCc2ccc(c(I)c2)Oc2cc(cc(Br)c2O)CCN1`: the EC50 turned out to be 28.6 µM. On to `Nc1cc2ccc1Oc1cc(cc(Br)c1O)CCNC(=O)CCNC(=O)CC2`, for which the EC50 came out at 21 µM. `O=C1CCNC(=O)CCc2ccc(c([N+](=O)[O-])c2)Oc2cc(cc(Br)c2O)CCN1`: the EC50 amounted to 24 µM. As for `[N-]=[N+]=Nc1ccc(I)cc1C(=O)NCCCC[C@H]1CC(=O)NCCc2cc(Br)c(O)c(c2)Oc2ccc(cc2Br)CCC(=O)N1`, the EC50 is over 100 µM. Consider `O=C1CCc2ccc(c([N+](=O)[O-])c2)Oc2cc(cc(Br)c2O)CCN1`, for which the EC50 worked out at 20.9 µM.
